Measured values: ChEMBL document CHEMBL1201862, “PubChem BioAssay data set” (2004)
The source made the active and inactive calls. Cut-off read from the data, not from the text of the source, for most assays here: actives have a measured EC50 and inactives only a lower limit.

How the values were obtained:
[1] = luciferase reporter signal suppression in cells – H4 neuroglioma cells, luminescence, dose response (AID 1990); format: functional, cell-based
[2] = alpha-synuclein stem-loop luciferase translation blockers – H4 neuroglioma cells, luminescence, confirmation (AID 1988); format: functional, cell-based
[3] = Luminescence Cell-Based Dose Response HTS to Identify Inhibitors of 5'UTR Stem-Loop Driven Prion Protein mRNA Translation in H4 Neuroglioblastoma Cells. [Related pubchem assays: 1827 (Project Summary), 1813 (Primary HTS)]; format: functional
[4] = test system: Streptococcus; assay: GAS UMAA2166 growth inhibition – luminescence, BacTiterGlo, counter-screen for streptokinase expression inhibitor project, dose response (AID 1915); format: functional, organism-based;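 note: potency for reduction of bacterial viability or growth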
[5] = Luminescence Cell-Based Dose Retest to Confirm Inhibitors of Cancer Stem Cells. [Related pubchem assays (depositor defined):AID2717, AID2721]; format: functional, Homo sapiens
[6] = test system: Streptococcus sp. 'group A'; assay: Streptococcus pyogenes SK(-)GAS viability under kanamycin – luminescence, BacTiterGlo, confirmation, counter-screen for streptokinase expression inhibitor project, dose response (AID 1900); format: functional, organism-based
[7] = target: T1, RNA-binding protein pos-1 (Caenorhabditis elegans, UniProt G5EF15); assay: disruptors of C. elegans POS-1 RNA interaction – biochemical, fluorescence polarization, dose response (AID 1964);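 note: purified POS-1 fused to maltose binding protein made in E. coli; potency of compounds blocking POS-1 binding to fluorescent RNA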
T1 sequence (G5EF15 whole entry): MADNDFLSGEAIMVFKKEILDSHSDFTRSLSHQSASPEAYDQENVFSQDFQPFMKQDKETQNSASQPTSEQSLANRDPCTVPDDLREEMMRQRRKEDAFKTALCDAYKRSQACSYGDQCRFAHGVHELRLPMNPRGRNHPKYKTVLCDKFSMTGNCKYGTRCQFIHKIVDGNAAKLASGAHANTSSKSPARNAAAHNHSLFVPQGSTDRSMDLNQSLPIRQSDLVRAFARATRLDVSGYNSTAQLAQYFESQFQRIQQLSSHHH

[8] = target: T2, Heat shock factor protein 1 (Mus musculus, UniProt P38532); assay: enhancement of HSF1-driven luciferase signal – cell-based, NIH3T3, luminescence, dose retest, confirmation (AID 435004); format: functional;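 note: stress induced by proteasome inhibitor MG132 added 30 min after compound; luciferase reporter driven by HSF1 response element in NIH3T3 cells; actives raise luminescence as potentiators of the MG132 stress response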
T2 sequence (P38532 whole entry): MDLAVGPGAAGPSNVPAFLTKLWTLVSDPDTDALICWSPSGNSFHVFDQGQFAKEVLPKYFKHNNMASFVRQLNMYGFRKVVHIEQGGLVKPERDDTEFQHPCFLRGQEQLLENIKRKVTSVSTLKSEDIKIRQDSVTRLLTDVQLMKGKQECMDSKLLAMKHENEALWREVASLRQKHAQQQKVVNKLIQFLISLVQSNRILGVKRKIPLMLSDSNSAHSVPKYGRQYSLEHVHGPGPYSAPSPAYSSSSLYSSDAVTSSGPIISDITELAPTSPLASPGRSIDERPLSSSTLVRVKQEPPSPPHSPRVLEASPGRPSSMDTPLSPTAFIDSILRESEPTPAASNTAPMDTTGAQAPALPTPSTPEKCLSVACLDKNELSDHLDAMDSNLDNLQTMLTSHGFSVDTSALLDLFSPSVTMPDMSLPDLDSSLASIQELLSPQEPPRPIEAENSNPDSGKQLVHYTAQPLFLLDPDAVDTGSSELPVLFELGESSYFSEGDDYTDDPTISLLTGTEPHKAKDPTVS

[9] = NIH3T3 cell viability loss – ATP luminescence, mouse fibroblasts, counter-screen, dose response (AID 2010); format: functional, cell-based;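 note: cells exposed to compound for about 90 hours before reading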
[10] = Trypanosoma cruzi growth suppression in host cells – NIH3T3 host cells, beta-gal luminescence, confirmation (AID 2044); format: functional, cell-based;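 note: intracellular parasites grown in NIH/3T3 mouse fibroblasts as host cells; luminescent beta-galactosidase reporter signal from transgenic T. cruzi replicating inside host cells; inhibitors lower the luminescence signal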
[11] = target: T3, Streptokinase A (Streptococcus pyogenes serotype M1, UniProt P10520); assay: viability-normalized secreted streptokinase activity reduction – plasminogen activation absorbance, OD405, dose response (AID 1914); format: functional, Streptococcus pyogenes M1 GAS;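 note: secreted streptokinase activity via plasminogen activation per viability signal from cell pellet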
T3 sequence (P10520 whole entry): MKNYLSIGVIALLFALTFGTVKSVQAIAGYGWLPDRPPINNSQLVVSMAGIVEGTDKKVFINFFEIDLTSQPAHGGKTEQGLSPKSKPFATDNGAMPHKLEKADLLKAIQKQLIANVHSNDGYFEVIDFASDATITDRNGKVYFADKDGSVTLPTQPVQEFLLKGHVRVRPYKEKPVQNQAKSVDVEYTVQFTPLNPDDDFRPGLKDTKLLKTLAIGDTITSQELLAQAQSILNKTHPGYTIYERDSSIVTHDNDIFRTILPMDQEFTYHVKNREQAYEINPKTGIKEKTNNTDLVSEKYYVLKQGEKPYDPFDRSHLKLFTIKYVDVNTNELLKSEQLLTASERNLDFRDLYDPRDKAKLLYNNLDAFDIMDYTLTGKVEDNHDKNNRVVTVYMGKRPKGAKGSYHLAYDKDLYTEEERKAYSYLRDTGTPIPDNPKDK

[12] = target: T4, Replicative DNA helicase DnaB (Mycobacterium tuberculosis, UniProt P9WMR3); assay: DnaB intein splicing inhibitors, dose response, biochemical, cell-free fluorescence (AID 449749); format: functional
T4 sequence (P9WMR3 whole entry): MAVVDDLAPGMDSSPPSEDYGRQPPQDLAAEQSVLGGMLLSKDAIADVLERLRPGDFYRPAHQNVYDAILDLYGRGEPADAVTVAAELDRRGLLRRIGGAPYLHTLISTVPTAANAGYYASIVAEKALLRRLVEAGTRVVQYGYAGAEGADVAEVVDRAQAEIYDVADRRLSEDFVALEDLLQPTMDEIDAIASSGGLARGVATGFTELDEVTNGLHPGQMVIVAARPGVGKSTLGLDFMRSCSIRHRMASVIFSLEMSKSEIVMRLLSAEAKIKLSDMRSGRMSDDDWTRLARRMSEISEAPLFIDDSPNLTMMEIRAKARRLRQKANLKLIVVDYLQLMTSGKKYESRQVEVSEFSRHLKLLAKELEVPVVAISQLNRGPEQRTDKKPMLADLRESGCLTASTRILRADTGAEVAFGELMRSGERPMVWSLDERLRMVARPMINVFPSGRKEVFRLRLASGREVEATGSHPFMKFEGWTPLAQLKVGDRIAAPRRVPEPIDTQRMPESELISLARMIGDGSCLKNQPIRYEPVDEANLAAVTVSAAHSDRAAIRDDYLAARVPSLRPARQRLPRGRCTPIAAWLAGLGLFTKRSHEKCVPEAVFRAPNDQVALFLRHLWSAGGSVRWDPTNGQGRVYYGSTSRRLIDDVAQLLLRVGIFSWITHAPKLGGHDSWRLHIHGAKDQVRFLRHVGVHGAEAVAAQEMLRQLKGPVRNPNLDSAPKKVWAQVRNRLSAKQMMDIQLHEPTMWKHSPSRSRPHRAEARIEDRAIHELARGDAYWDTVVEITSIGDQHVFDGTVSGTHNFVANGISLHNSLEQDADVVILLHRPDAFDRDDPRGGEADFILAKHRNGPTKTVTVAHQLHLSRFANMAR

[13] = target: T5, Protein RecA (Mycobacterium tuberculosis, UniProt P9WHJ3); assay: Fluorescence Cell-Free Homogeneous Dose Retest to Identify Inhibitors of RecA-Intein Splicing Activity. [Related pubchem assays (depositor defined):AID2097, AID2223, AID489010, AID492950]; format: functional
T5 sequence (P9WHJ3 whole entry): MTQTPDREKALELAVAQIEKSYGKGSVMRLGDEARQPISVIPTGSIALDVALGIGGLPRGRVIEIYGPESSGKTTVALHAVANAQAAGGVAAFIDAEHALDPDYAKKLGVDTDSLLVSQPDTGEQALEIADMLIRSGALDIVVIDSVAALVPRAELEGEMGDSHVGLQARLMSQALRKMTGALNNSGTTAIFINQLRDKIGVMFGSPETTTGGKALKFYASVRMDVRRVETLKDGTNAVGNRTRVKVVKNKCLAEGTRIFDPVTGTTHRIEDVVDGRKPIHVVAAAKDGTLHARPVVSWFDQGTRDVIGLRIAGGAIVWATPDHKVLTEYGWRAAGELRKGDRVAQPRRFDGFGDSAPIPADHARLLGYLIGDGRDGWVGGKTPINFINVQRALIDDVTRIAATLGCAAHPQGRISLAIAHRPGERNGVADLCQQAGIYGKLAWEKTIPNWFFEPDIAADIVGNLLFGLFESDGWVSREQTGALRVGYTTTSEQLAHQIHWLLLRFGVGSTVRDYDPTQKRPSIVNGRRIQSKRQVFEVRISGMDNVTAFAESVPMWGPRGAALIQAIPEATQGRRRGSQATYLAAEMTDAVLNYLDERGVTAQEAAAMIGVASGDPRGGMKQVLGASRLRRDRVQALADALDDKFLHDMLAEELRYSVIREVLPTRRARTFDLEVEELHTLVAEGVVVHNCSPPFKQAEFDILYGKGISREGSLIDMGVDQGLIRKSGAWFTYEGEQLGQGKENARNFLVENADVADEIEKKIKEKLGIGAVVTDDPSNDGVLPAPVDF

O=[N+]([O-])c1ccc(OCc2cn([C@@H](CO)c3ccccc3)nn2)c(Br)c1
EC50 [1]: > 120 µM (not active)
EC50 [2]: > 120 µM (not active)
EC50 [3]: > 120 µM (not active)

Cc1ccc(N2CC(C(=O)Nc3nnc(SCC(=O)Nc4cc(C)on4)s3)CC2=O)cc1 (stereo not given)
EC50 [1]: > 120 µM (not active)
EC50 [2]: > 120 µM (not active)
EC50 [3]: > 120 µM (not active)

CC1CCc2nc(NCCO)nc(C(F)(F)F)c2C1 (stereo not given)
EC50 [1]: 12.5 µM (active)
EC50 [2]: > 120 µM (not active)
EC50 [3]: 26.1 µM (active)

O=c1cc(N2CCCCC2)c(-c2ccccc2)nn1Cc1c(Cl)cccc1Cl
EC50 [1]: 14.8 µM (active)
EC50 [2]: > 120 µM (not active)
EC50 [4]: 5.18 µM (active)
AC50 ([5]; Homo sapiens): 4.43 µM (active)
EC50 [6]: 5.65 µM (active)
EC50 [3]: > 120 µM (not active)

CCN(CC)c1ccc(N/C=C2/C(=O)NC(=O)N(Cc3ccccc3)C2=O)cc1
EC50 [7]: > 300 µM (not active)

NC(=O)c1sc2nc3c(c(-c4ccc(Cl)cc4)c2c1N)CCCC3
EC50 [1]: 12.5 µM (active)
EC50 [2]: 12.3 µM (active)
EC50 [3]: > 120 µM (not active)

Clc1cccc(CN2CCN(Cc3nc(CCc4ccccc4)no3)CC2)c1
EC50 [1]: > 120 µM (not active)
EC50 [2]: > 120 µM (not active)
EC50 [8]: > 260 µM (inactive)
EC50 [3]: 32.3 µM (active)

Cc1cn(-c2cc(C(=O)Nc3ccc(C)c(NC(=O)C(=O)c4c[nH]c5ccccc45)c3)cc(C(F)(F)F)c2)cn1
EC50 [4]: 3.39 µM (active)
AC50 ([5]; Homo sapiens): 2.18 µM (active)
EC50 [6]: 2.38 µM (active)
EC50 [3]: 23 µM (active)

COC(=O)C1CCN(C(=O)COC(=O)Cc2c[nH]c3ccccc23)CC1
EC50 [1]: > 120 µM (not active)
EC50 [2]: > 120 µM (not active)
EC50 [3]: > 120 µM (not active)

O=c1c([N+](=O)[O-])c[nH]c2nc(-c3ccncc3)nn12
EC50 [1]: 15.8 µM (active)
EC50 [2]: > 120 µM (not active)
EC50 [3]: 14.2 µM (active)

O=C(CC12CC3CC(CC(C3)C1)C2)NC(=S)NCc1ccccc1
EC50 [1]: 13.1 µM (active)
EC50 [2]: 16.8 µM (active)
EC50 [3]: 18.4 µM (active)

O=C(Cn1cnc2c(cnn2-c2ccc(Cl)cc2)c1=O)N1CCN(c2ccccc2)CC1
EC50 [1]: 15.8 µM (active)
EC50 [2]: 18.4 µM (active)
EC50 [3]: 12 µM (active)

Cc1cccc(C)c1NC(=O)COC(=O)c1cccc2c1C(=O)c1ccccc1C2=O
EC50 [1]: 13.9 µM (active)
EC50 [2]: > 120 µM (not active)
EC50 [8]: 30.8 µM (active)
EC50 [3]: 13.3 µM (active)

Cc1cc(C)c2c(N)c(C(=O)c3ccc(Cl)cc3Cl)sc2n1
EC50 [1]: 12.2 µM (active)
EC50 [2]: 13.8 µM (active)
EC50 [3]: 19.4 µM (active)

O=C(NCCc1c[nH]c2ccccc12)C1CCC(Cn2c(=S)[nH]c3ccccc3c2=O)CC1 (stereo not given)
EC50 [9]: > 60 µM (not active)
EC50 [1]: 16.9 µM (active)
EC50 [2]: 32.1 µM (active)
AC50 ([5]; Homo sapiens): 0.582 µM (active)
EC50 [10]: 1.07 µM (active)
EC50 [3]: > 120 µM (not active)

Cc1ccc(S(=O)(=O)N(C)CC(=O)N/N=C/c2ccc(C)o2)cc1
EC50 [1]: > 120 µM (not active)
EC50 [2]: > 120 µM (not active)
EC50 [3]: > 120 µM (not active)

N=C(N)c1ccc(OCCCCCOc2ccc(C(=N)N)cc2)cc1
EC50 [11]: 27.9 µM (active)
EC50 [1]: 11.5 µM (active)
EC50 [2]: 9.9 µM (active)
EC50 [4]: < 0.06 µM (active)
EC50 [6]: < 0.06 µM (active)
EC50 [3]: 10.9 µM (active)

CCN(CC)CCOc1ccc(/C(=C(/Cl)c2ccccc2)c2ccccc2)cc1 [CLOMIPHENE]
AC50 [5]: 1.35 µM (active)
AC50 [12]: 4.34 µM (active)
EC50 [8]: 129 µM (active)
EC50 [13]: 12.4 µM (active)
